Test results published in US7695933B2, “SM38 nucleic acid molecules” (priority 2000, dated 2010).
“And” between values parts separate entries of the source, which are not always exact repeats. Equal entries are not always repeated. Where two headings read alike, the source gives them in different places.

Experiments:
SM38 = assay: Enzyme assays and kinetics with purified recombinant soluble SM38; assay type: biochemical, Schistosoma mansoni; settings: for Km / Vmax (specific activity) / kcat: 37° C., 10 mM potassium phosphate buffer pH 7.4, SM38 from Pichia pastoris
Method: The enzyme was incubated with NAD^+ (200 μM) in buffer A (1 ml final volume) until the reaction reached 50% completion. The enzyme was eliminated by centrifugation for 10 min at 5000×g on ultrafiltration units (Vivaspin 2, Vivascience). […] The cycling reaction was then allowed to proceed in the same buffer in the presence of 0.8% ethanol, 10 mM nicotinamide, 40 μg/ml BSA, 20 μg/ml diaphorase (treated with charcoal), 20 μg/ml alcohol dehydrogenase, 10 μM FMN and 20 μM resazurin. The increase in resorufin fluorescence (excitation at 544 nm and emission at 590 nm) was measured every minute for 2 h using a fluorescence plate reader (FluoStar from BMG Labtechnologies Inc).
Aliquots were removed at different time points, treated as described above and analyzed by HPLC on a C18 column.
(§1) The transglycosidation of NADP^+ was measured by incubating recombinant soluble SM38 with 1 mM NADP^+ and 20 to 40 mM nicotinic acid at 37° C. for 20 min in a 10 mM potassium phosphate buffer, pH 6.0 or 7.4 (final volume 500 μl). The reaction mixture was analyzed by HPLC on an ion-exchange column (see below). HPLC analysis of the reaction products were performed on aliquots on a C18 column (see below).
The assays were conducted at 37° C. in buffer A in the presence of soluble recombinant enzyme using eight different substrate concentrations. […] Kinetic parameters were determined from the plots of the initial rates as a function of substrate concentration, according to Michaelis-Menten kinetics, using a non-linear regression program (GraphPad, Prism).

Mammalian cyclases = settings: cited from earlier work
Aplysia cyclase = Aplysia cyclase (Aplysia californica, UniProt P29241); settings: cited from earlier work
bone marrow neutrophils [1] = assay: In vitro transwell chemotaxis assay; assay type: cell-based, mouse; settings: for ability of neutrophils to chemotax to IL-8: WT neutrophils pre-treated with agent, IL-8 in bottom chamber
Method: Bone marrow neutrophils were purified (95% purity) by positive selection using biotinylated GR-1 (PharMingen) and MACS Streptavidin Microbeads (Miltenyi Biotec, Auburn Calif.). Chemotaxis assays (Falk et al., 1980 J. Immuno. Methods 33:239-247) were performed using 24-well transwell plates with a 3 μm pore size polycarbonate filter (Costar, Cambridge, Mass.). Medium (HBSS+Ca2^++Mg2^+), fMLP (1 μM, Sigma, St. Louis, Mo.), or IL-8 (100 nM, Sigma) was placed in the lower and/or upper chamber in a checkerboard format. 1×10^5 neutrophils were loaded in the upper chamber and the plates were incubated at 37° C. for 45 min. The transmigrated cells were collected from the lower chamber, fixed and counted on the flow cytometer (FACS Calibur, Becton Dickinson, San Jose Calif.). To determine the absolute number of cells in each sample, a standard number of […] size fluorescent microspheres (Polysciences, Inc. Warrington, Pa.) was added to each tube and counted along with the cells. The total number of transmigrated cells=the number of counted neutrophils×total number of beads/beads counted. […]

bone marrow neutrophils [2] = assay: Intracellular calcium measurements by flow cytometry (Fluo-3/Fura Red); assay type: cell-based, mouse
Method: Purified bone marrow neutrophils were resuspended in cell loading media (HBSS with Ca2^+ and Mg2^++1% FBS+4 mM probenecid) at 1×10^7 cells/ml. The cells were incubated at 37° C. for 30 min with the fluorescent dyes Fluo-3 AM (4 μg/ml) and Fura Red AM (10 μg/ml) (Molecular Probes, Eugene Oreg.) and then washed twice and resuspended in cell loading medium or calcium-free medium at 1×10^6 cells/ml. In some experiments, cells were permeabilized in 5 μM digitonin in calcium-free media. […] The accumulation of [Ca^2+]i in individual cells was assessed by flow cytometry measuring the fluorescence emission of Fluo-3 in the FL-1 channel and Fura-Red in the FL-3 channel. Data was analyzed using FlowJo 3.2 (Tree Star, Inc. San Carlos, Calif.). The relative [Ca2^+]i was expressed as the ratio between Fluo-3 and Fura Red mean fluorescence intensity over time.

[3] = tested on: membrane-associated NAD^+ glycohydrolase/NGD^+ cyclase expressed by adult S. mansoni worms; assay: NAD+ glycohydrolase / NGD+ cyclase activity of adult worm membrane microsomes
Method: The enzyme was suspended in 10 mM potassium phosphate buffer, pH 7.4 (buffer A) and incubated at 37° C. with substrate (200 μl final volume). At selected times, aliquots (50 μl) were removed and enzyme activity was stopped by adding ice-cold perchloric acid (2% final concentration). After neutralization with 3.5 M K2CO3, precipitated proteins were removed by centrifugation. Product formation was then monitored by HPLC as described below. […] Product formation was then monitored by HPLC on a C18 column as described below.
Product analysis was performed by HPLC on 300×3.9 mm μBondapack C18 column (Waters Assoc., Milford Mass.). […] The elution was performed at a flow rate of 1 ml/min with a non-linear gradient starting with 100% solvent A (water). […] Peaks were identified by comparison with authentic samples and areas obtained from UV recordings were normalized using the molar extinction coefficients of the reaction products.
To prepare membrane fractions from adult S. mansoni worms, 2 g of worms were disrupted at 4° C. with a potter in 10 mM potassium phosphate buffer (pH 7.4) containing 1 mM EDTA and 0.1 mM phenylmethylsulfonyl fluoride (PMSF) as protease inhibitors. The homogenate was centrifuged at 10,000×g for 15 min and the post-mitochondrial supernatant was centrifuged at 100,000×g for 60 min to obtain the membrane microsomal fraction. […]

[4] = other cyclase family members; cited from earlier work
[5] = Transglycosidation (pyridine base exchange) by cyclase family enzymes; assay type: biochemical; settings: SM38
Method: as §1

Sequence of Aplysia cyclase (P29241 25-282): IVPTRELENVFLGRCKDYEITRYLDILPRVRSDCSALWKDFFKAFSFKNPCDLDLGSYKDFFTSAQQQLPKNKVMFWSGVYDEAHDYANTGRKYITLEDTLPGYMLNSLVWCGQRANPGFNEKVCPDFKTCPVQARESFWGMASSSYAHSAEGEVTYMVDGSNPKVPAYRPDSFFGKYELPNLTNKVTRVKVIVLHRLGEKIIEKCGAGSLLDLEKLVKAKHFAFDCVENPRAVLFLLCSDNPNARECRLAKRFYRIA

NNC(=O)c1ccncc1 [INH, isoniazid]
Sensivity to INH (SM38; SM38): INH-insensitive and no | Sensivity to INH (Mammalian cyclases): yes/no

NC(=O)c1ccc[n+]([C@@H]2O[C@H](COP(=O)([O-])OP(=O)(O)OC[C@H]3O[C@@H](n4cnc5c(N)ncnc54)[C@H](O)[C@@H]3O)[C@@H](O)[C@H]2F)c1 [araF-NAD^+]
IC50 (SM38; SM38, read-out: Inhibition by araF-NAD^+ (IC50)): > 10 µM | IC50 (Aplysia cyclase; read-out: Inhibition by araF-NAD^+ (IC50)): > 10 µM | Inhibition by araF-NAD^+ (Ki) (Mammalian cyclases): Ki nM range

N=c1c2nc(Br)n3c2ncn1C1OC(COP(=O)(O)OP(=O)(O)OCC2OC3C(O)C2O)C(O)C1O (stereo not drawn) [8-Br-cADPR]
ability of neutrophils to chemotax to IL-8 (bone marrow neutrophils [1]): absolutely no effect | release of intracellular calcium and influx of extracellular calcium (bone marrow neutrophils [2]; WT cells preincubated with increasing concentrations, stimulated with fMLP): reduced in a dose-dependent fashion | [Ca2+]i of IL-8 stimulated neutrophils (bone marrow neutrophils [2]; WT or CD38KO neutrophils, IL-8): absolutely no effect | cADPR-induced intracellular calcium release after pre-treatment (bone marrow neutrophils [2]; permeabilized neutrophils, calcium-free buffer, stimulated with cADPR): No calcium release | block of accumulation of intracellular free calcium mediated by thapsigargin (bone marrow neutrophils [2]; thapsigargin-stimulated neutrophils): unable to block

cyclic GDP-ribose [cGDPR]
Formation of cGDPR (SM38; SM38): yes | Formation of cGDPR (Aplysia cyclase): yes | Formation of cGDPR (Mammalian cyclases): yes

NC(=O)c1ccc[n+]([C@@H]2O[C@H](COP(=O)([O-])OP(=O)(O)OC[C@H]3O[C@@H](n4cnc5c(N)ncnc54)[C@H](OP(=O)(O)O)[C@@H]3O)[C@@H](O)[C@H]2O)c1 [NADP^+]
Km (SM38): 13.7 ± 2.9 µM | Vmax (specific activity) (SM38): 39.2 ± 1.6 µmol/min/mg | kcat (SM38): 19.34 ± 0.79 s⁻¹ | catalytic efficiency (kcat/Km) relative to NAD+ (SM38; NADP+ versus NAD+): 8 fold

N.N.N.N.N.N.N.N.N.N.N.N.N.N.[Cl-].[Cl-].[Cl-].[Cl-].[Cl-].[Cl-].[O-2].[O-2].[Ru+3].[Ru+3].[Ru+4] [ruthenium red]
block of ryanodine-induced increase in [Ca2+] (bone marrow neutrophils [2]; permeabilized neutrophils, calcium-free buffer): blocked

O=C(O)CN(CCOCCOCCN(CC(=O)O)CC(=O)O)CC(=O)O [EGTA]
ability of neutrophils to chemotax to IL-8 (bone marrow neutrophils [1]): absolutely no effect

NC(=O)c1ccc[n+]([C@@H]2O[C@H](COP(=O)([O-])OP(=O)(O)OC[C@H]3O[C@@H](n4c(Br)nc5c(N)ncnc54)[C@H](O)[C@@H]3O)[C@@H](O)[C@H]2O)c1 [N(8-Br-A)D^+, nicotinamide 8-bromoadenine dinucleotide]
chemotaxis of CD38KO neutrophils to either fMLP or IL-8 (bone marrow neutrophils [1]; CD38KO neutrophils pre-treated): no effect | ability of neutrophils to chemotax to IL-8 (bone marrow neutrophils [1]): no effect | neutrophil chemotaxis to fMLP (bone marrow neutrophils [1]; WT neutrophils pre-treated, fMLP in bottom chamber): severely reduced | entry of extracellular calcium in fMLP-treated neutrophils (bone marrow neutrophils [2]; WT neutrophils pretreated): inhibited

NC(=O)c1ccc[n+]([C@@H]2O[C@H](COP(=O)([O-])OP(=O)(O)OC[C@H]3O[C@@H](n4cnc5c(=O)[nH]c(N)nc54)[C@H](O)[C@@H]3O)[C@@H](O)[C@H]2O)c1 [NGD^+, nicotinamide guanine dinucleotide]
Km (SM38): 23.4 µM | Vmax (specific activity) (SM38): 4.8 µmol/min/mg and 4.8 ± 0.1 µmol/min/mg | kcat (SM38): 2.37 ± 0.05 s⁻¹ | cyclization/hydrolysis ratio (SM38; NGD+ as substrate, cGDPR vs GDPR): approximately 6.0 | cGDPR/GDPR ratio ([3]; membrane microsomes incubated with NGD+): 12

ryanodine
[Ca2+]i after stimulation (bone marrow neutrophils [2]; neutrophils permeabilized in calcium-free buffer): small, but reproducible, increase

Nc1ncnc2c1ncn2[C@@H]1O[C@H](COP(=O)(O)OP(=O)(O)OCC2OC([n+]3cccc(C(=O)[O-])c3)C(O)C2O)[C@@H](O)[C@H]1OP(=O)(O)O (stereo in doubt) [NAADP^+, nicotinic acid adenine dinucleotide phosphate]
reduction in NAADP+ formation at pH 7.4 compared to pH 6.0 (SM38; transglycosidation of NADP+ with nicotinic acid): 3 fold

NC(=O)c1ccc[n+]([C@@H]2O[C@H](COP(=O)([O-])OP(=O)(O)OC[C@H]3O[C@@H](n4cnc5c(N)ncnc54)[C@H](O)[C@@H]3O)[C@@H](O)[C@H]2O)c1 [NAD^+]
Km (SM38): 38.5 ± 6.8 µM | Vmax (specific activity) (SM38): 13.2 µmol/min/mg and 13.2 ± 2.6 µmol/min/mg | kcat (SM38): 6.51 ± 1.28 s⁻¹ | Hydrolysis of NAD^+ (SM38; SM38): yes | Methanolysis of NAD^+ (SM38; SM38): yes | specific activity of non-treated membrane microsomes ([3]; 14C-labeled NAD+, ADPR production by HPLC): 36 nmol/min/mg protein | Hydrolysis of NAD^+ (Aplysia cyclase): very low | Methanolysis of NAD^+ (Aplysia cyclase): very low | Hydrolysis of NAD^+ (Mammalian cyclases): yes | Methanolysis of NAD^+ (Mammalian cyclases): yes

B1: Aplysia cyclase: invertebrate Aplysia ADP-ribosyl cyclase enzyme (protein)
chain: MSPVAIVACVCLAVTLTRISPSEAIFPTPELQNVFLGRCKDYEITRYLTILPRVKSDCRALWTNFFKAFSFKAPCNLDLGSYKDFFQRAQQTLPKNKVMFWSGVYDEAHDFADDGRKYITLEDTLPGYMLNSLVWCGQRDKPGFNQKVCPDFKDCPVQARESFWGTASSSYAHSAEGDVTYMVDGSNPKVPAYRPDSFFGKYELPNLTNKVTKVKVIVLHQLGQKIIERCGAGSLLDLEMVVKAKKFGFDCVENPKSVLFLLCADNPNARECQLAKRYYRIA
modifications: A. californica
notes: invertebrate Aplysia ADP-ribosyl cyclase enzyme
Transglycosidation [4]: yes

B2: SM38: CD38 homologue from the parasitic flatworm Schistosoma mansoni (protein)
chain: RHEVIFHNLLIQIMMNVILFLTLSNIFVFNSAQHQINLLSEIVQSRCTQWKVEHGATNISCSEIWNSFESILLSTHTKSACVMKSGLFDDFVYQLFELEQQQQQRHHTIQTEQYFHSQVMNIIRGMCKRLGVCRSLETTFPGYLFDELNWCNGSLTGNTKYGTVCGCDYKSNVVHAFWQSASAEYARRASGNIFVVLNGSVKAPFNENKTFGKIELPLLKHPRVQQLTVKLVHSLEDVNNRQTCESWSLQELANKLNSVHIPFRCIDDPLEFRHYQCIENPGKQLCQFSASTRSNVETLLILFPLVICLTFYTSMN
Transglycosidation [5]: yes
